{"source": "patent US20060045884A1", "about": "“Vaccines for autoimmune and infectious disease” (Board of Regents, priority 2004, published 2006)", "key": {"peptide-loaded T2 cells": {"system": "peptide-loaded T2 cells", "assay": "Induction of primary CTL responses with peptide-pulsed T2 cells and 4-hr cytotoxicity against peptide-loaded T2 cells", "type": "cell-based, human", "conditions": "for peptide-specific lysis by CTL line generated against the MPO peptide: T2 cells loaded with 2.0 μg/mL of the same peptide; for peptide-specific lysis by CTL line generated against the peptide: T2 cells loaded with 1.0 μg/mL of the same peptide, E:T 50:1 to 6:1; for elicitation of peptide specific CTL lines: different donors and differing peptide concentrations; for donors in which peptide-stimulated CTL lines killed CCNE1144-152- and CCNE2144-152-pulsed T2 cells: PBMCs from 7 HLA-A2 positive normal donors"}, "[1]": {"system": "PBMCs from HLA-A2+ CML patients", "type": "cell-based, human"}, "HLA-A2.1": {"molecular_target": "HLA-A2.1 (Homo sapiens, UniProt P04439, D140Y/D185E/D98H/E176V/E277Q/G131W/G231S/I119V/I121R/I166T/I218V/L300P/L318F/N151K/N90K/P208A/P217A/Q86G/Q94H/R138H/R169H/T345S)", "assay": "Peptide binding: HLA-A2.1 surface expression on peptide-coated T2 cells by indirect flow cytometry", "conditions": "for Median Channel of Fluorescence of HLA-A2 Expression on T2: background HLA-A2 without peptide 22; for surface HLA-A2.1 expression compared with T2 cells with no added peptide: result in words; for peptide binding to HLA-A*0201, fluorescence intensity versus positive control peptide (Influenza B Nuclear Protein): T2 cells pulsed 18 hr"}, "[2]": {"system": "PBMC from HLA-A2.1+ healthy donor", "assay": "PR1/HLA-A2 tetramer staining of CTL elicited from healthy donor PBMC with PR1-pulsed T2 cells", "type": "cell-based, human"}, "[3]": {"system": "PR1-CTL from a healthy donor", "assay": "Annexin V staining of PR1-CTL 16 to 18 hr after challenge with peptide-pulsed T2 cells", "type": "cell-based, human", "conditions": "for apoptosis of high avidity PR1-CTL: T2 cells pulsed with 20 μM peptide", "from_the_text": "High PR1 concentration and proteinase 3-overexpressing CML cells induce apoptosis of high avidity PR1-specific CTL. […] All high avidity PR1-CTL exposed to high dose PR1 were dead after 36 to 48 hr of co-culture."}, "[4]": {"system": "HLA-A2+ patients with CML, AML or MDS", "assay": "Phase I/II PR1 peptide vaccine study", "type": "in vivo, human", "conditions": "9 patients", "source_text": "To test this in refractory leukemia patients, a phase I/II vaccine study was initiated. HLA-A2^+ patients with CML (interferon-resistant or relapsed after BMT), AML (smoldering relapse or ≧2nd CR) or MDS (RAEB or RAEBt) with no detectable antibodies to proteinase 3 (no detectable cANCA) were eligible. Patients that relapsed after BMT or those ineligible for BMT were also eligible for study. Pregnant patients, HIV+ patients, and those with known vasculitis were excluded. Patients were required to have immunosuppression (i.e. cyclosporine, steroids) discontinued 4 weeks prior to study entry.\nSecondarily, clinical responses were assessed by standard criteria with bone marrow biopsy, cytogenetic studies (standard chromosome banding) and molecular studies (PCR for bcr-abl or other known abnormalities such as t(15;17), inv16, etc.) 3 weeks after the last vaccination. Patients were seen and evaluated in clinic every 3 weeks during the study period. Both vialed PR1 peptide (NSC698102) and the adjuvant (Montanide ISA-51, NSC675756) were used in this study.\nThe overall study was divided into two parts: Phase I consisted of nine patients treated in cohorts of three at 1 of 3 dose levels of 0.25 mg, 0.5 mg, or 1.0 mg of PR1 peptide given subcutaneously in incomplete Freund's adjuvant (Montanide ISA-51) and GM-CSF 75 mg subcutaneously every 3 weeks for 3 injections. […]"}, "[5]": {"system": "HLA-A2.1 positive human myeloid leukemia cells", "assay": "4-hr cytotoxicity of peptide-specific CTL against leukemia cells, normal marrow and cell lines", "type": "cell-based", "conditions": "not non-transfected K562", "procedure": "CTL cytotoxicity assay. A semi-automated minicytotoxicity assay was used to determine specific lysis as described previously (Molldrem, 2000; Molldrem et al., 1996). Briefly, effector cells were prepared in doubling dilutions from 6×10^3 to 25×10^3 cells/well and were plated in 40 μl, 60-well Terasaki trays (Robbins Scientific, Sunnyvale, Calif., USA) with six replicates per dilution. Target cells (T2 cells, marrow-derived leukemic cells, or BM from a healthy donor) at a concentration of 2×10^6 cells/ml were stained with 10 μg/ml of Calcein-AM (Molecular Probes Inc.) for 60 min at 37° C. […] Wells with target cells alone and medium alone were used for maximum (max) and minimum (min.) fluorescence emission, respectively. After 4 hr incubation at 37° C. in 5% CO2, 5 μl FluoroQuench (One Lambda Inc., Canoga Park, Calif., USA) was added to each well, and the trays were centrifuged for 1 min at 60 g before measurement of fluorescence using an automated CytoFluor II plate reader (PerSeptive Biosystems, Framingham, Mass., USA). The percentage of lysis was calculated as follows: % lysis={1−[(mean experimental mission−mean min.)/(mean max−mean min.)]}×100%.\nPR1 specific CTL preferentially lyse human myeloid leukemia cells. It was next determined whether the PR1-specific CTL line was capable of lysing allogeneic human myeloid leukemia cells from HLA-A2.1 positive individuals. […]"}}, "note": "Entries after “also recorded” stand apart in the source; their conditions may differ. Read-outs that look alike come from different tables or passages of the source."}
{"substance": "KLLLALAGL [MY2]", "values": [{"measurement": "peptide-specific lysis by CTL line generated against the MPO peptide", "setting": "peptide-loaded T2 cells", "result": "high specific lysis"}]}
{"substance": "VLQELNVTV [PR1, HLA-A2.1-restricted nonamer (aa 169-177) derived from proteinase 3]", "values": [{"measurement": "peptide-specific lysis by CTL line generated against the peptide", "setting": "peptide-loaded T2 cells", "result": "high specific lysis"}, {"measurement": "avidity of PR1-CTL that could be elicited from CML patients", "setting": "[1]; CML #1, #2, #3, weekly PR1 stimulation", "result": "Only low-avidity PR1-CTLs could be elicited; also recorded: Only low avidity PR1-CTL could be elicited"}, {"measurement": "lowest PR1 concentration eliciting PR1-CTLs", "setting": "[1]; patient 1", "result": "≥ 0.2", "unit": "µM"}, {"measurement": "lowest PR1 concentration eliciting low-avidity PR1-CTLs", "setting": "[1]; patient 2", "result": 0.02, "unit": "µM"}, {"measurement": "lowest PR1 concentration eliciting low-avidity PR1-CTLs", "setting": "[1]; patient 3", "result": 0.002, "unit": "µM"}, {"measurement": "surface HLA-A2 expression on T2 cells versus PR1 concentration", "setting": "HLA-A2.1; PR1 from 2 μM and 200 μM", "result": "increases linearly"}, {"measurement": "Median Channel of Fluorescence of HLA-A2 Expression on T2", "setting": "HLA-A2.1", "result": 294}, {"measurement": "surface HLA-A2.1 expression compared with T2 cells with no added peptide", "setting": "HLA-A2.1", "result": "increased surface HLA-A2.1 expression"}, {"measurement": "high intensity PR1/HLA-A2 tetramer-staining CTL elicited", "setting": "[2]; 0.2 μM PR1 weekly for 28 days", "result": 1.3, "unit": "%"}, {"measurement": "median channel of flourescence (MCF) of tetramer staining", "setting": "[2]; 20 μM PR1", "result": 93}, {"measurement": "low avidity PR1-specific CTL elicited", "setting": "[2]; 20 μM PR1 weekly for 28 days", "result": 3.1, "unit": "%"}, {"measurement": "bulk culture CTL double-positive for anti-CD8 and PR1-tetramer", "setting": "[2]; 32 day-old PR1-stimulated CTL culture", "result": 4.3, "unit": "%"}, {"measurement": "fraction of CTL line specific for PR1 (CD8/PR1-tetramer)", "setting": "[2]; day 17 CTL line elicited against PR1", "result": 2.4, "unit": "%"}, {"measurement": "PR1-CTL induced", "setting": "[2]; ≦0.02 μM PR1", "result": "< 0.1", "unit": "%"}, {"measurement": "apoptosis of high avidity PR1-CTL", "setting": "[3]", "result": "underwent apoptosis"}, {"measurement": "apoptosis of low avidity PR1-CTL", "setting": "[3]; high or low concentrations of PR1", "result": "did not undergo apoptosis"}, {"measurement": "PR1-specific CTL immunity elicited (by tetramer staining)", "setting": "[4]", "result": "6 of 9"}, {"measurement": "complete remissions", "setting": "[4]", "result": 2, "unit": "patients"}]}
{"substance": "LLSYFKQPV [MY3]", "values": [{"measurement": "elicitation of peptide specific CTL lines", "setting": "peptide-loaded T2 cells", "result": "No peptide specific CTL lines could be elicited"}]}
{"substance": "SLWRRPFNV [MY1]", "values": [{"measurement": "elicitation of peptide specific CTL lines", "setting": "peptide-loaded T2 cells", "result": "No peptide specific CTL lines could be elicited"}]}
{"substance": "KLNDILLIQL [PR7I]", "values": [{"measurement": "peptide binding to HLA-A*0201, fluorescence intensity versus positive control peptide (Influenza B Nuclear Protein)", "setting": "HLA-A2.1", "result": "strong peptide binding"}]}
{"substance": "RLFEQVMRI [MY4]", "values": [{"measurement": "peptide-specific lysis by CTL line generated against the MPO peptide", "setting": "peptide-loaded T2 cells", "result": "tested similarly"}]}
{"substance": "ILLDWLLEV [CCNE2144-152]", "values": [{"measurement": "donors in which peptide-stimulated CTL lines killed CCNE1144-152- and CCNE2144-152-pulsed T2 cells", "setting": "peptide-loaded T2 cells", "result": "4 of 7"}]}
{"substance": "NLVPMVATV [pp65 peptide, reference compound]", "values": [{"measurement": "avidity of CTLs elicited with pp65 peptide-pulsed T2 cells", "setting": "[1]", "result": "high-avidity p65-specific CTLs"}]}
{"substance": "KLNDVLLIQL [PR7V]", "values": [{"measurement": "peptide binding to HLA-A*0201, fluorescence intensity versus positive control peptide (Influenza B Nuclear Protein)", "setting": "HLA-A2.1", "result": "strong peptide binding"}]}
{"substance": "ILLDWLMEV [CCNE1144-152]", "values": [{"measurement": "donors in which peptide-stimulated CTL lines killed CCNE1144-152- and CCNE2144-152-pulsed T2 cells", "setting": "peptide-loaded T2 cells", "result": "3 of 7"}, {"measurement": "peptide-stimulated CTL lines that killed HLA-A2 transfected K562 leukemic cell line", "setting": "[5]", "result": "one of 4"}]}
{"substance": "RLFPDFFTRV [PR2]", "values": [{"measurement": "peptide-specific lysis by CTL line generated against the peptide", "setting": "peptide-loaded T2 cells", "result": "did not demonstrate any significant cytotoxicity"}, {"measurement": "Median Channel of Fluorescence of HLA-A2 Expression on T2", "setting": "HLA-A2.1", "result": 273}, {"measurement": "surface HLA-A2.1 expression compared with T2 cells with no added peptide", "setting": "HLA-A2.1", "result": "increased surface HLA-A2.1 expression"}]}
{"substance": "LIQPFMFRL [MY5]", "values": [{"measurement": "elicitation of peptide specific CTL lines", "setting": "peptide-loaded T2 cells", "result": "No peptide specific CTL lines could be elicited"}]}
{"substance": "Influenza nucleoprotein: control influenza peptide, Influenza B nucleoprotein (aa 85-94), known high binding affinity to HLA-A2.1 (KLGEFYNQMM) [reference compound]", "values": [{"measurement": "Median Channel of Fluorescence of HLA-A2 Expression on T2", "setting": "HLA-A2.1", "result": 194}, {"measurement": "apoptosis of high avidity PR1-CTL", "setting": "[3]", "result": "no apoptosis was observed"}]}
